From article PMC11678531, “C118P Suppresses Gastric Cancer Growth via Promoting Autophagy–Lysosomal Degradation of RAB1A” (Pharmaceutics, 2024)

Target: T1, RAB1A (Human Rab1a Recombinant protein) (Homo sapiens, UniProt P62820)
T1 construct: commercial recombinant protein (Shanghai Chunmai Biotechnology); RED-NHS labelled
Test: microscale thermophoresis
Assay type: binding
Details: RED-NHS labelled protein; room temperature; C118P 0.61 pM to 20 µM

T1 sequence (P62820 2-205): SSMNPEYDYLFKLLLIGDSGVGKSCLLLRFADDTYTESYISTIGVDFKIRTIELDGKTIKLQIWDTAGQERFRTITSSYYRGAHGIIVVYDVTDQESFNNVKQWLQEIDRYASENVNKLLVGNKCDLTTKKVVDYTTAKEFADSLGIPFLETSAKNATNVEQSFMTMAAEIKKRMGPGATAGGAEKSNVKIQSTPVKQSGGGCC

Kd: 3.13 nM
Structure (SMILES): COc1cc(OC)cc(-c2nc[nH]c2-c2ccc(OC)c(OP(=O)(O)O)c2)c1 [C118P]
